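All cell lines were grown in 96-well plates and treated with compound for 48 hours. Abbreviation: GI50, concentration required for 50% inhibition of growth. Definition used: TGI = concentration required for complete inhibition of growth.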 Where a SMILES comes first, the peptide text is derived from it.
Tests used:
Test in all cases: NCI anticancer screen, dose series, 48 h
[1] = system: HL-60(TB) leukemia
[2] = system: IGROV1 ovarian
[3] = system: PC-3 prostate
[4] = system: RXF 393 renal
[5] = system: SK-OV-3 ovarian
[6] = system: COLO 205 colon
[7] = system: SN12C renal
[8] = system: EKVX NSCLC
[9] = system: MALME-3M melanoma
[10] = system: A498 renal

SMILES	TGI [1] [µM]	TGI [2] [µM]	TGI [3] [µM]	TGI [4] [µM]	TGI [5] [µM]	TGI [6] [µM]	TGI [7] [µM]	TGI [8] [µM]	GI50 [5] [nM]	TGI [9] [µM]	GI50 [7] [nM]	TGI [10] [µM]	GI50 [1] [nM]	GI50 [2] [nM]	GI50 [3] [nM]	GI50 [4] [nM]	GI50 [9] [nM]	GI50 [6] [nM]	GI50 [8] [nM]	GI50 [10] [nM]
NC(CCOCCP(=O)(O)CCC1C=CC=CC1)C(=O)O (configuration not stated)	> 100	> 100	> 100	> 100	> 100	> 100	> 100	> 100												
C[Si](C)(C)c1ccc(-c2c3ccc(-c4cc(Br)cc(Br)c4)nc3nc3nc(-c4cc(Br)cc(Br)c4)ccc23)cc1			> 100		> 100	> 100	> 100	> 100		> 100		> 100								
O=C1c2cccnc2C(=O)c2c1c(C(=O)OCCN1CCCCC1)c1ccccn21	3.24	2.94	9.59	0.235	0.051	0.169	0.479	7.52	12.4	0.424	13.8	13.1	363	145	160	61.5	84.7	48.1	851	65
Nc1ccc(O)c2c1C(=O)c1c(N)ccc(O)c1C2=O	> 100	> 100		> 100	> 100	> 100	> 100	> 100		> 100		> 100								
NC(=O)C1CCCN1C(=O)C(N)Cc1ccccc1 (stereo not drawn) (H-Phe-Pro-NH2; configuration not given here)	> 100	> 100	> 100			> 100		> 100		> 100		> 100								
CN(CC(=O)O)Cc1c(O)c(Cl)cc(Cl)c1Cl	44.6	> 100	> 100	> 100	> 100	> 100	> 100	> 100		> 100		> 100								
CC1C(=O)CC(c2cccs2)N(N=O)C1c1cccs1 (configuration not stated)	> 72.2	> 100		81.1	> 81.2	> 100	> 100	> 100		> 100		> 70.9								
CCc1n[nH]c(=O)n1/N=C(\C)c1ccc([N+](=O)[O-])cc1	> 100	> 100	> 100	> 100		> 100	> 100	> 100												
COc1ccc(NC(C)=O)cc1N1C(=O)/C(=C\c2ccccc2)SC1c1cc(OC)c(OC)c(OC)c1 (configuration not stated)	81	> 100	> 100	> 100	> 100	> 100	> 100	> 100		56.2		> 100								
Clc1cc(Cl)c2cc3cccc[n+]3cc2c1Cl	29.7		29.2		30.1	28.1	39.5	30.8		53.7		34								
OC[C@H]1NC[C@@H](O)[C@@H](O)[C@H]1O		> 100	> 100	> 100	> 100	> 100	> 100			> 100		> 100								
COc1ccc(-c2nc3c(nc2-c2ccc(OC)cc2)C(N)=NS(=O)(=O)N3)cc1	> 100	> 100		> 100	> 100	> 100	> 100	> 100		> 100		> 100								
CSc1nc(CO)c(CO)n1C	> 100	> 100		> 100	> 100	> 100	> 100	> 100				> 100								
CCOC(=O)Cn1c2ccc(Br)cc2c2nc3ccccc3nc21		> 100	> 100	> 100		> 100	> 100					> 100								
O=C(NC(Cc1ccc(Br)cc1)C(=O)O)c1ccc(I)cc1 (configuration not stated)	> 100	> 100		> 100	> 100	> 100	> 100	> 100		> 100		> 100								
CCN1c2cc(Br)cc3[nH]c(=O)n(c23)CCC1C (configuration not stated)	35.8	31.5	39.7	27.6	49.4	31.3	30.6	23.5		56.1		29								
CC(=O)Nc1cccc(N2C(=O)/C(=C\c3cccc(Oc4ccccc4)c3)S(=O)(=O)C2c2ccccc2)c1 (configuration not stated)	50.4	> 100	> 100	> 100	> 100	> 100	> 100	> 100		> 100		> 100								
CN(Cc1cn(O)c2nc(=N)nc(N)c-2n1)c1ccc(C(=O)NC23CC4CC(CC(C4)C2)C3)cc1	> 100	> 100	> 100	94.9	> 100	> 100	> 100	> 100		> 100		57.1								

— PubChem BioAssay (NCI)
